This experiment has as its target Transcription factor Jun (Homo sapiens, UniProt P05412). In words: Inhibition of AP-1-mediated transcriptional activation in human Jurkat cells by luciferase reporter gene assay.

Each structure is given as a SMILES string. pIC50: −log10 of the molar value.

Chain of Transcription factor Jun (P05412 whole entry): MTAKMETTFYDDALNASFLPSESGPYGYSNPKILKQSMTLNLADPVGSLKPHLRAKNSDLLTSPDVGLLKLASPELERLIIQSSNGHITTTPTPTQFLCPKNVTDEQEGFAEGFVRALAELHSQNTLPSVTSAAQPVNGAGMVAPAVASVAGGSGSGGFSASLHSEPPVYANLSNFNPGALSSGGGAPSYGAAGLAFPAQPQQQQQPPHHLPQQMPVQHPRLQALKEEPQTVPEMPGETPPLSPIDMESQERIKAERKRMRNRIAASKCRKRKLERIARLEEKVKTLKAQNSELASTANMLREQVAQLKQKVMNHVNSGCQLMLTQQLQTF

As a reminder, the pIC50 is −log10 of the IC50, conventionally taken in molar units. A high value points to a low IC50. For `N#Cc1ncc(C(=O)Nc2cc(C(F)(F)F)cc(C(F)(F)F)c2)c(C(F)(F)F)n1` [2-Cyano-4-trifluoromethyl-pyrimidine-5-carboxylic acid (3,5-bis-trifluoromethyl-phenyl)-amide], the negative logarithm of the IC50 (pIC50) was < 5.00.

`O=C(Nc1cc(C(F)(F)F)cc(C(F)(F)F)c1)c1ccc(Cl)cc1C(F)(F)F` [N-(3,5-Bis-trifluoromethyl-phenyl)-4-chloro-2-trifluoromethyl-benzamide]: the negative-log IC50 (pIC50) is < 4.52.

On to `O=C(Nc1cc(C(F)(F)F)cc(C(F)(F)F)c1)c1cnc(C(F)(F)F)nc1C(F)(F)F` [2,4-Bis-trifluoromethyl-pyrimidine-5-carboxylic acid (3,5-bis-trifluoromethyl-phenyl)-amide], for which the pIC50 was < 5.00.
